# Assay results published in US20070037807A1, “Pyridine compounds as inhibitors of dipeptidyl peptidase IV” (priority 2003, published 2007).
# pIC50: −log10 of the molar value. Where a name gives a salt, the structure may show the parent alone. Read-outs that look alike come from different tables or passages of the source.
# Legend:
# dipeptidyl peptidase IV = molecular target: T1, dipeptidyl peptidase IV (Rattus norvegicus, UniProt P14740); experiment: Determination of dipeptidyl peptidase IV inhibitory activity in rat plasma; type: biochemical, SD rat
# T1 construct: from tissue; host or cells: SD rat blood plasma
# T1 sequence (P14740 37-767 limits assumed): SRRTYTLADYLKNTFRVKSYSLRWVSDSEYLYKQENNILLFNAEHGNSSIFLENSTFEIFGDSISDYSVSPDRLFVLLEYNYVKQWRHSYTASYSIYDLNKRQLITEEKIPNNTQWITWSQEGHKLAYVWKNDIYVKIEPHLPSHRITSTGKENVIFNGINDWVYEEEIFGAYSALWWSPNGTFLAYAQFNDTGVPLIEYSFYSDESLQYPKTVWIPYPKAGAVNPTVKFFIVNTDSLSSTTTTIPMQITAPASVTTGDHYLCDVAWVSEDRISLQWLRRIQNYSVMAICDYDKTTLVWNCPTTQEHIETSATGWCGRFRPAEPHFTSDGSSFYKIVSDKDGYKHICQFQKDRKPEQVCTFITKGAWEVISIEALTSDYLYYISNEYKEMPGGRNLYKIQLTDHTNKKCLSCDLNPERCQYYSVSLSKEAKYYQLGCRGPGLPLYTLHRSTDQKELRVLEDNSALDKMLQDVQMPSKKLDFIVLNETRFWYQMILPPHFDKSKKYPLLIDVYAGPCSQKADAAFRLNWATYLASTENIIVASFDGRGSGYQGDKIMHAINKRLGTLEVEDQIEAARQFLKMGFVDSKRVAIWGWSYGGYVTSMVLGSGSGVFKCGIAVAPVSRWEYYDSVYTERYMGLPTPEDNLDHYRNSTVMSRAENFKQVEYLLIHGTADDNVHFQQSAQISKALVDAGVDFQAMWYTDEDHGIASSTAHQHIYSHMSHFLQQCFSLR
# Experimental: Determination of Dipeptidyl Peptidase IV Inhibitory Activity in Rat Plasma
# An N,N-dimethylformamide solution (1 μL) containing the test compound was added to a mixture of water (69 μL), 1 M Tris-hydrochloride buffer (10 μL, pH 7.5) and 1 mM aqueous Gly-Pro-p-NA solution (100 μL) to prepare a mixed solution. […] At the same time, an increase (ΔODc) in absorbance of the reaction mixture without the test compound, and an increase (ΔODb) in absorbance of the reaction mixture without the test compound and the enzyme were determined and percent inhibition of dipeptidyl peptidase IV enzyme activity was calculated from the following formula: {1-[(ΔODs−ΔODb)/(ΔODc−ΔODb)]}×100
# [1] = Experimental Example 2, same manner as Experimental Example 1, SD rat plasma, Gly-Pro-p-NA substrate, 30° C., read-out: IC50 value (dipeptidyl peptidase IV inhibitory activity)
SMILES,pIC50 (dipeptidyl peptidase IV; [1]),other results
"COC(=O)c1c(C)nc(CC(C)C)c(CN)c1-c1ccc(C)cc1 [Example 1, methyl 5-(aminomethyl)-6-isobutyl-2-methyl-4-(4-methylphenyl)nicotinate]",,"melting point: 56 to 57 °C; pIC50 (dipeptidyl peptidase IV; Experimental Example 1, SD rat plasma, Gly-Pro-p-NA substrate, 30° C., 1 hr, absorbance 405 nm, read-out: IC50 value (dipeptidyl peptidase IV inhibitory activity)): 6.28"
"Cc1nc(CC(C)C)c(CN)c(-c2ccc(Cl)cc2)c1C(=O)OC(C)(C)C [Example 23, tert-butyl 5-(aminomethyl)-4-(4-chlorophenyl)-6-isobutyl-2-methylnicotinate]",,melting point: 81 to 83 °C
"Cc1ccc(-c2c(CN)c(CC(C)C)nc(C(C)C)c2C(=O)O)cc1 [Example 26, 5-(aminomethyl)-6-isobutyl-2-isopropyl-4-(4-methylphenyl)nicotinic acid dihydrochloride]",8.29,
"Cc1ccc(-c2c(CN)c(CC(C)C)nc(C)c2C(=O)OCc2ccc(C(=O)O)cc2)cc1 [Example 170, 4-[({[5-(aminomethyl)-6-isobutyl-2-methyl-4-(4-methylphenyl)pyridin-3-yl]carbonyl}oxy)methyl]benzoic acid dihydrochloride]",,pIC50 (dipeptidyl peptidase IV): 7.00
"Cc1ccc(-c2c(CSc3ccccc3C(N)=O)c(C)nc(CC(C)C)c2CN)cc1 [Example 210, 2-({[5-(aminomethyl)-6-isobutyl-2-methyl-4-(4-methylphenyl)pyridin-3-yl]methyl}thio)benzamide dihydrochloride]",7.92,
"Cc1ccc(-c2c(CN)c(CC(C)C)nc(C)c2NC(=O)c2ccc(F)cc2)cc1 [Example 267, N-[5-(aminomethyl)-6-isobutyl-2-methyl-4-(4-methylphenyl)pyridin-3-yl]-4-fluorobenzamide dihydrochloride]",8.13,
"COC(=O)c1cn(C)nc1OCc1c(C)nc(CC(C)C)c(CN)c1-c1ccc(C)cc1 [Example 305, methyl 3-{[5-(aminomethyl)-6-isobutyl-2-methyl-4-(4-methylphenyl)pyridin-3-yl]methoxy}-1-methyl-1H-pyrazole-4-carboxylate dihydrochloride]",8.46,
"Cc1ccc(-c2c(CC(=O)N3CCOCC3)c(C)nc(CC(C)C)c2CN)cc1 [Example 312, {[2-isobutyl-6-methyl-4-(4-methylphenyl)-5-(2-morpholin-4-yl-2-oxoethyl)pyridin-3-yl]methyl}amine dihydrochloride]",7.70,
"Cc1ccc(-c2c(CN)c(CC(C)C)nc(C)c2NC(=O)c2cnoc2)cc1 [Example 350, N-[5-(aminomethyl)-6-isobutyl-2-methyl-4-(4-methylphenyl)pyridin-3-yl]isoxazole-4-carboxamide dihydrochloride]",7.82,
"CCOC(=O)C1CCN(C(=O)Cc2c(C)nc(CC(C)C)c(CN)c2-c2ccc(C)cc2)CC1 [Example 421, ethyl 1-{[5-(aminomethyl)-6-isobutyl-2-methyl-4-(4-methylphenyl)pyridin-3-yl]acetyl}piperidine-4-carboxylate dihydrochloride]",7.80,
"Cc1ccc(-c2c(CC(=O)N3CCC(C(=O)O)CC3)c(C)nc(CC(C)C)c2CN)cc1 [Example 422, 1-{[5-(aminomethyl)-6-isobutyl-2-methyl-4-(4-methylphenyl)pyridin-3-yl]acetyl}piperidine-4-carboxylic acid dihydrochloride]",8.14,
